Where “and” joins values, the source holds several entries; their conditions need not be identical. Equal entries are not always repeated.
Legend:
[1] = refractive index (Na D-line) (dimensionless); conditions: 101.33 kPa, Liquid, Standard Abbe refractometry
[2] = Liquid; for viscosity: Concentric cylinders viscometry; for mass density: Vibrating tube method
[3] = xn = mol fraction of the nth substance listed; conditions: 100 kPa, Liquid, x2 = 0; for viscosity: Concentric cylinders viscometry; for mass density: Vibrating tube method
[4] = refractive index (Na D-line) (dimensionless); xn = mol fraction of the nth substance listed; conditions: 100 kPa, Liquid, Standard Abbe refractometry, x2 = 0

COC(=O)CCCCC(=O)OC [dimethyl 1,6-hexanedioate]
Conditions	refractive index
[1], 298.15 K	1.4264

[2]
Conditions	mass density, 293.15 K [kg/m3]	viscosity, 288.15 K [mPa·s]	viscosity, 293.15 K [mPa·s]	viscosity, 298.15 K [mPa·s]	viscosity, 303.15 K [mPa·s]	viscosity, 308.15 K [mPa·s]	viscosity, 313.15 K [mPa·s]	viscosity, 318.15 K [mPa·s]	viscosity, 323.15 K [mPa·s]
100 kPa	–	3.751	3.289	2.91	2.604	2.342	2.121	1.933	1.79
101.33 kPa	1061.93	–	–	–	–	–	–	–	–

CCC(C)=O [butanone] + COC(=O)CCCCC(=O)OC
[3]
Conditions	viscosity [mPa·s]
288.15 K	0.4306
293.15 K	0.4136
298.15 K	0.3962
303.15 K	0.3793
308.15 K	0.3626
313.15 K	0.3461
318.15 K	0.3303
323.15 K	0.3167

CCCCO [butan-1-ol] + CCC(C)=O
Conditions	mass density, [3] [kg/m3]	refractive index, [4]	viscosity, [3] [mPa·s]
288.15 K	813.373	1.40135	3.375
293.15 K	809.573	1.39932	2.945
298.15 K	805.762	1.3973	2.581
303.15 K	801.923	1.39523	2.272
308.15 K	798.053	1.39318	2.008
313.15 K	794.147	1.3911	1.782
318.15 K	790.231	1.38901	1.587
323.15 K	786.238	1.38688	1.419

CCCCO [butan-1-ol]
[1]
Conditions	refractive index
288.15 K	1.40135
293.15 K	1.39932
298.15 K	1.3973
303.15 K	1.39523
308.15 K	1.39318
313.15 K	1.3911
318.15 K	1.38901
323.15 K	1.38688

[2], 100 kPa
Conditions	mass density [kg/m3]	viscosity [mPa·s]
288.15 K	813.373	3.375
293.15 K	809.573	2.945
298.15 K	805.762	2.581
303.15 K	801.923	2.272
308.15 K	798.053	2.008
313.15 K	794.147	1.782
318.15 K	790.231	1.587
323.15 K	786.238	1.419

CCC(C)=O [butanone]
[1]
Conditions	refractive index
288.15 K	1.38153
293.15 K	1.37892
298.15 K	1.37631
303.15 K	1.37366
308.15 K	1.37102
313.15 K	1.36834
318.15 K	1.36565
323.15 K	1.36294

[2], 100 kPa
Conditions	mass density [kg/m3]	viscosity
288.15 K	810.133	0.4306 mPa·s and 0.4306 mPa·s
293.15 K	804.926	0.4136 mPa·s and 0.4136 mPa·s
298.15 K	799.695	0.3962 mPa·s and 0.3962 mPa·s
303.15 K	794.435	0.3793 mPa·s and 0.3793 mPa·s
308.15 K	789.142	0.3626 mPa·s and 0.3626 mPa·s
313.15 K	783.814	0.3461 mPa·s and 0.3461 mPa·s
318.15 K	778.451	0.3303 mPa·s and 0.3303 mPa·s
323.15 K	773.047	0.3168 mPa·s and 0.3167 mPa·s

From the NIST ThermoML archive (doi:10.1021/je5007696)
